Source: ChEMBL document CHEMBL4402533 (Eur J Med Chem, 2019)
pIC50: −log10 of the molar value. One block for each compound: values may come before it.

Experiments:
Homo sapiens [1] = organism: Homo sapiens; experiment: Selectivity ratio of Ki for human carbonic anhydrase 9 to Ki for human carbonic anhydrase 2
Homo sapiens [2] = organism: Homo sapiens; experiment: Selectivity ratio of Ki for human carbonic anhydrase 12 to Ki for human carbonic anhydrase 9
HeLa = experiment: Antiproliferative activity against human HeLa cells; assay type: functional, cell-based
Tyrosinase = molecular target: T1, Tyrosinase (Agaricus bisporus, UniProt O42713); experiment: Inhibition of mushroom tyrosinase preincubated for 10 mins followed by L-DOPA addition and measured for 1 mins by spectrophotometric assay
T1 sequence (O42713 whole entry): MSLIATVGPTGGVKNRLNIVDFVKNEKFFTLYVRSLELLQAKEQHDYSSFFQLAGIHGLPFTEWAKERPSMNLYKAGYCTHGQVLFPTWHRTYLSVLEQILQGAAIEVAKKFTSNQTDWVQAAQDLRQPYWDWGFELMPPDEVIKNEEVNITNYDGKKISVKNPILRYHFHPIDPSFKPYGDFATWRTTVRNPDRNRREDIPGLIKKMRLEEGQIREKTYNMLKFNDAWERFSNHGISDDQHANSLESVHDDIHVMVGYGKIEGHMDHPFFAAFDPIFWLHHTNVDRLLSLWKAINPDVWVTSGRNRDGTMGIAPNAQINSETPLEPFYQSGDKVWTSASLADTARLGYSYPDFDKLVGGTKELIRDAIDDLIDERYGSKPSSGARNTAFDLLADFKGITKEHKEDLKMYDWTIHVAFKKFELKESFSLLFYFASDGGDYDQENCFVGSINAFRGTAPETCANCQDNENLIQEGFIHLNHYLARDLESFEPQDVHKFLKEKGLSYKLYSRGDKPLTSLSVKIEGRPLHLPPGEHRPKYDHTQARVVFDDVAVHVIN

Mus musculus = experiment: Antiinflammatory activity in C57BL/6 mouse assessed as reduction in LPS-induced inflammatory mortality by measuring mouse survival rate at 10 mg/kg, iv preincubated for 15 mins followed by LPS stimulation and measured at 24 hrs interval for 7 days relative to control; assay type: functional
[3] = Partition coefficient, log P of the compound; assay type: physicochemical; conditions: octanol/water
[4] = Chemical stability of the compound in presence of 10% FBS or human blood; assay type: physicochemical
[5] = Chemical stability of the compound in pH 7.4 phosphate buffer assessed as drug decomposition in serum-free medium measured within 30 mins; assay type: physicochemical
[6] = Critical aggregation concentration of compound by dynamic light scattering; assay type: physicochemical

Compound: COc1ccc(/C=C/C(=O)/C=C/c2ccc(OCCN3CCCCC3)c(OC)c2)cc1OC
- pIC50 (HeLa): 6.15

Compound: O=C1/C(=C/c2ccc(O)cc2)CC/C1=C\c1ccc(O)cc1O
- pIC50 (Tyrosinase): 5.76

Compound: O=C(/C=C/c1ccccc1O)/C=C/c1ccccc1Br
- Activity (Mus musculus): 60%

The next lines start with results.

- Ratio Ki (Homo sapiens [1]): 3
- Ratio Ki (Homo sapiens [2]): 70
Compound: COc1ccc(/C=C/C(=O)/C=C/c2ccc(S(N)(=O)=O)cc2)cc1OC

- Ratio Ki (Homo sapiens [1]): 9
- Ratio Ki (Homo sapiens [2]): 9
Compound: COc1ccc(OC)c(/C=C/C(=O)/C=C/c2ccc(S(N)(=O)=O)cc2)c1

- logP [3]: 2.3 to 2.6
- CAC [6]: 17 µM
Compound: COc1cc(/C=C/C(=O)CC(=O)/C=C/c2ccc(O)c(OC)c2)ccc1O [CURCUMIN]
- Stability [4]: < 50%
- Drug degradation [5]: < 90%
